Reference: US6054475A, “Substituted dihydrobenzofuran-based phosphodiesterase 4 inhibitors useful for treating airway disorders” (Byk Gulden Lomberg Chemische Fabrik GmbH, priority 1996, dated 2000)

Test system: PDE4
Assay: Inhibition of PDE4 activity (method of Bauer and Schwabe, adapted to microtiter plates)
Type: biochemical
Conditions: Table A; inhibitory concentrations as -log IC50 (mol/l)
Method: The activity test was carried out according to the method of Bauer and Schwabe, which was adapted to microtiter plates (Naunyn-Schmiedeberg's Arch. Pharmacol. 311, 193-198, 1980). The PDE reaction takes place here in the first step. In a second step, the resulting 5'-nucleotide is cleaved to give the uncharged nucleoside by a 5'-nucleotidase of the snake venom from Crotalus atrox. In the third step, the nucleoside is separated from the remaining charged substrate on ion exchange columns. Using 2 ml of 30 mM ammonium formate (pH 6.0), the columns are eluted directly into minivials to which is additionally added 2 ml of scintillator fluid for counting.

COc1ccc(C2(C#N)CCC(=NO)CC2)c2c1OC1(CCCC1)C2 (centres unmarked) [Compound 14, 4-a-Cyano-4-e-(2,3-dihydro-7-methoxybenzofuran-2-spiro-1'-cyclopentan-4-yl)cyclohexan-1-one oxime] and COc1ccc(C2(C#N)CCNC(=O)CC2)c2c1OC1(CCCC1)C2 (centres unmarked) [Compound 16, 7-Oxo-4-cyano-4-(2,3-dihydro-7-methoxybenzofuran-2-spiro-1'-cyclopentan-4-yl)hexahydroazepine] are within 0.2 log units of each other in “-log IC50 (inhibition of PDE4 activity)” value: 7.78 for the first, 7.96 for the second.

First: COc1ccc([C@]2(C#N)CC[C@@H](C(=O)NO)CC2)c2c1OC1(CCCC1)C2 [Compound 7, cis-4-Cyano-4-(2,3-dihydro-7-methoxybenzofuran-2-spiro-1'-cyclopentan-4-yl)cyclohexane-1-carboxylic acid hydroxylamide]
Second: COc1ccc([C@]2(C#N)CC[C@@H](C(=O)O)CC2)c2c1OC1(CCCC1)C2 [Compound 2.1, cis-4-Cyano-4-(2,3-dihydro-7-methoxybenzofuran-2-spiro-1'-cyclopentan-4-yl)cyclohexane-1-carboxylic acid]
The “-log IC50 (inhibition of PDE4 activity)” value of the first is lower: 7.52 for the first, 8.22 for the second.

Going from COc1ccc(C2(C#N)CCS(=O)(=O)CC2)c2c1OC1(CCCC1)C2 [Compound 11, 1,1-Dioxo-4-a-cyano-4-e-(2,3-dihydro-7-methoxybenzofuran-2-spiro-1'-cyclopentan-4-yl)tetrahydro-1-thiopyran] to COc1ccc(C2(C#N)CCOCC2)c2c1OC1(CCCC1)C2 [Compound 9, 4-a-Cyano-4-e-(2,3-dihydro-7-methoxybenzofuran-2-spiro-1'-cyclopentan-4-yl)tetrahydropyran], the “-log IC50 (inhibition of PDE4 activity)” value rises from 7.72 to 8.26.

COc1ccc([C@]2(C#N)CC[C@@H](C(=O)O)CC2)c2c1OC1(CCOCC1)C2 [Compound 4, cis-4-Cyano-4-(2,3-dihydro-7-methoxybenzofuran-2-spiro-4'-tetrahydropyran-4-yl)cyclohexane-1-carboxylic acid] and COc1ccc([C@]2(C#N)CC[C@@H](C(N)=O)CC2)c2c1OC1(CCOCC1)C2 [Compound 6, cis-4-Cyano-4-(2,3-dihydro-7-methoxybenzofuran-2-spiro-4'-tetrahydropyran-4-yl)cyclohexane-1-carboxamide] are within 0.2 log units of each other in “-log IC50 (inhibition of PDE4 activity)” value: 7.69 for the first, 7.65 for the second.

Going from COc1ccc([C@]2(C#N)CC[C@@H](C(N)=O)CC2)c2c1OC1(CCCC1)C2 [Compound 5, cis-4-Cyano-4-(2,3-dihydro-7-methoxybenzofuran-2-spiro-1'-cyclopentan-4-yl)cyclohexane-1-carboxamide] to COc1ccc([C@]2(C#N)CC[C@@H](OP(=O)(O)Oc3ccccc3)CC2)c2c1OC1(CCCC1)C2 [Compound 8, cis-4-Cyano-4-(2,3-dihydro-7-methoxybenzofuran-2-spiro-1'-cyclopentan-4-yl)cyclohexyl-1-phenyl phosphate], the “-log IC50 (inhibition of PDE4 activity)” value falls from 8.31 to 7.44.

For COc1ccc(C2(OC)CCOCC2)c2c1OC1(CCCC1)C2 [Compound 13, 4-a-Methoxy-4-e-(2,3-dihydro-7-methoxybenzofuran-2-spiro-1'-cyclopentan-4-yl)tetrahydropyran], the “-log IC50 (inhibition of PDE4 activity)” value was 7.41.
